{"source": "patent US20240408071A1", "about": "“NOVEL COMBINATION OF SEROTONIN RECEPTOR (5-HTR2B) ANTAGONIST AND AN IMMUNOMODULATOR AND CHEMOTHERAPEUTIC DRUGS FOR INHIBITION OF CANCER” (NATIONAL CENTRE FOR CELL SCIENCE, priority 2021, published 2024)", "system": "tumor-infiltrating immune cells in MC38 tumor", "assay": "Tumor-infiltrating immune cells in MC38 tumor (flow cytometry / immunohistochemistry)", "type": "in vivo, C57BL/6 mice", "experimental": "FIG. 7 depicts that antagonizing the 5-HTR2B in mice inhibits breast and colon tumor growth: (A) MC38 colon cancer cells were injected subcutaneously into the right flank of C57BL/6 mice. […] Tumor volumes were measured and plotted. (B) MC38 colon cancer cells were injected subcutaneously into the right flank of C57BL/6 mice. After seven days when tumors became palpable, one group was treated with 5-HTR7 antagonist SB-269970 (n=6 mice; 3 mg/kg/day) or left untreated (n=6 mice). Tumor volume was measured and plotted. (C) After seven days of the setting of tumor growth, one group was treated with a serotonin transporter blocker (SSRI) sertraline hydrochloride (n=6 mice; 15 mg/kg/week) or left untreated (n=6 mice). Tumor volume was measured and plotted. (D) C57BL/6 mice were given subcutaneously injected MC38 cells. After seven days of tumor growth, one group of mice was treated with different doses of 5-HTR2B antagonist SB-215505 (n=6). Tumor volume was measured and plotted. (E) C57BL/6 mice were given subcutaneously injected MC38 cells. After seven days of the tumor growth, one group of mice was treated with different doses of 5-HTR2B antagonist SB-215505 (n=6), one group treated with 5-HTR2B agonist BW-723C86 (n=6; 4 mg/kg/day). Tumor volume was measured and plotted. (F) MC38 cells were subcutaneously injected into C57BL/6 mice. After seven days when the tumor became palpable in mice, one group of mice was treated with FDA-approved 5-HTR2B antagonist cariprazine (Carispec; Sun pharma) via oral gavage (n=5 mice; dose 5 mg/kg body weight/day) or left untreated (n=5 mice). Tumor growth was measured and plotted. (G) Breast cancer cell lines (4T1-Luc cells) were injected into the mammary fatpad of BALB/c mice. After seven days of the tumor growth setting in mice, one group of mice was treated with 5-HTR2B antagonist SB-215505(n=5 mice) or left untreated (n=5 mice). Tumour volumes were measured and plotted. (H) Mice melanoma (B16F10 cells) were injected subcutaneously in the left flank of C57BL/6J mice. After seven days of the tumor growth setting in mice, one group of mice was treated with 5-HTR2B antagonist SB-215505(n=5 mice) or left untreated (n=5 mice). Tumour volumes were measured and plotted. (I) Statistical analysis of the flow cytometric data showing the differential expression of F4/80^+CD11B^+ macrophages within MC38 tumor following treatment with 5-HTR2B antagonist. (J) Statistical analysis of the flow cytometric data showing the differential expression of F4/80^+CD11B^+ iNOS^+ M1 macrophages within MC38 tumor following treatment 5-HTR2B antagonist. (K) Statistical analysis of the flow cytometric data showing the differential expression of F4/80^+CD1B^+ Arg1^+ M2 macrophages within MC38 tumor following treatment with 5-HTR2B antagonist. (L) Immuno-Histochemistry data of MC38 tumor tissue from control and 5-HTR2B antagonist treated mice showing expression of F4/80 (cyan), iNOS (blue), arginase 1 (green), and CD11c (red). Images are taken in […] and inset images are acquired in 600× magnification and DAPI (blue) is used as counterstain. All the images in the panel were taken at 200× magnification. The image in the inset was taken in 600× magnification. All the statistical analysis was performed using Student's ‘t’ test or two-way ANOVA using Sidak's multiple comparison test. *P<0.05; **P<0.01; […]; ****P<0.0001 Error bar represents mean±standard error of means (SEM).\nFIG. 9 depicts the effect of5-HTR antagonists on the CTL response MC38 tumor model in mice: (A) Clinical data correlation study. A TIDE computational method was used to study the association between the tumor-infiltrating CD8 T cells (also known as cytotoxic T lymphocytes, CTL) level and overall subject survival in relation to the intratumoral 5-HTR2B gene expression level. […]", "key": {"[1]": {"conditions": "day 24, compared to control and SB-215505 treated tumor (FIG. 14)"}}}
{"smiles": "CC(C)c1cc(-c2ccc(F)c3ccccc23)nc(N)n1", "note": "[RS-127445]", "values": [{"measurement": "total CD11c+ DCs in the TME", "result": "reducing the total CD11c^+ DCs"}, {"measurement": "percentage of PD-L1+ CD11c+ DCs in the tumor", "setting": "[1]", "result": "much reduced percentage"}, {"measurement": "percentage of PD-L1+ arginase1+ M2 macrophages in the tumor", "setting": "[1]", "result": "much reduced percentage"}, {"measurement": "percentage of PD-L1+ total macrophages in the tumor", "setting": "[1]", "result": "much reduced percentage"}, {"measurement": "percentage of PD-L1+iNOS+ M1 macrophages in the tumor", "setting": "[1]", "result": "much reduced percentage"}, {"measurement": "percentage of total CD11b+Gr1+ MDSCs in the tumor", "setting": "[1]", "result": "much reduced percentage"}]}
